Results as given in patent US20070009593A1, “Methods of treating cancer” (Indianan University Advanced Research, priority 2002, published 2007).
pIC50: −log10 of the molar value. Where two headings read alike, the source gives them in different places.

Experiments:
A549 = test: MTT assay, NSCLC cell line; format: cell-based; settings: Homo sapiens
H522 = test: MTT assay, NSCLC cell line; format: cell-based; settings: Homo sapiens
H460 = test: MTT assay, NSCLC cell line; format: cell-based; settings: Homo sapiens
H23 = test: MTT assay, NSCLC cell line; format: cell-based; settings: Homo sapiens, NCI-H23
MCF7 = test: MTT assay, breast cancer line; format: cell-based; settings: Homo sapiens, MCF7, read-out: Ritonavir IC50
Procedure: (§1) The drugs were tested together at the ratio of their IC50 as single agents, over a 4-log range of concentrations. […] Viable cell number was measured by MTT assay.

MDA-231 = test: MTT assay, breast cancer line; format: cell-based; settings: Homo sapiens
Procedure: as §1

MDA-436 = test: MTT assay, breast cancer line; format: cell-based; settings: Homo sapiens, read-out: Ritonavir IC50; MDA-436 parental line
Procedure: as §1

SKBR-3 = test: MTT assay, breast cancer line; format: cell-based; settings: Homo sapiens, SK-BR-3, read-out: Ritonavir IC50
Procedure: as §1

T47D = test: MTT assay, breast cancer line; format: cell-based; settings: Homo sapiens, read-out: Ritonavir IC50
Procedure: as §1

[1] = test system: MDA-436LXSN (vector control line); test: MTT assay, breast cancer line; format: cell-based; settings: Homo sapiens, read-out: Ritonavir IC50
Caco 2 cells = test: proliferation / combination assay in colon cancer cells; format: cell-based; settings: Homo sapiens
[2] = test system: Caco 2 C9 control (pRC/CMV vector); test: MTT assay, 96 well plate, 48 h; format: cell-based; settings: Caco-2, 48 h, read-out: Ritonavir IC50
[3] = test system: Caco 2 2-3 (calpastatin over-expressing); test: MTT assay, 96 well plate, 48 h; format: cell-based; settings: Homo sapiens, Caco-2, read-out: Ritonavir IC50, 2-3 line
[4] = test system: Caco 2 0.5-11 (calpastatin over-expressing); test: MTT assay, 96 well plate, 48 h; format: cell-based; settings: Homo sapiens, Caco-2, read-out: Ritonavir IC50, 0.5-11 line (calpain activity reduction of 80%)
EGF receptor = EGF receptor expression in Caco 2 cells, Western blot; format: cell-based; settings: 20 μM, 24 hours, confluent Caco 2
Procedure: The medium was not changed. After 24 hours, the cells were harvested by Triton X-100 lysis, and Western blot analysis was performed on the supernatant, which contains solubilized EGF receptor.

[5] = test system: calpain cleavage of α-fodrin; test: NFF score, IHC with PP1 antibody, ritonavir treated mice; format: in vivo; settings: 10 days
Excerpt: Differentiation of the stratum spinosum of tongue epithelium was affected, with a reduction of nuclear involution as well as an increase in the keratinized layer (FIGS. 5A-5C). […] Previous observations of the proliferative rate of tongue compared to skin in mice indicate that tongue is a more proliferative epithelium (Hume, W. J. Cell Tissue Kinet. 19:195-203 (1986)).
The antiserum specific for the calpain-dependent α-fodrin cleavage, PP1, was used at 1:100 dilution. Competition with specific peptide blocked nuclear staining. The size bar is […]. […] Arrows indicate basal layer nuclei. The vertical bar indicates maximum thickness of the keratinized layer in each image.

[6] = test system: MDA-MB-435 human breast cancer xenografts; test: nude mouse mammary fat pad xenograft model; format: in vivo, nude mice; settings: 19 days
Procedure: An inoculum of 5×10^5 MDA-MB-435 cells in 100 μl was injected into the mammary fat pad of each female animal. […] The tumor growth rate was reduced by 16% in the mice treated at 20 mg/kg, compared to the mice treated with vehicle.

[7] = test system: MDA-MB-231 human breast cancer tumors; test: MDA-MB-231 xenograft model; format: in vivo, nude mice; settings: 40 mg/kg
Procedure: (Tumor size was measured by the method volume in cubic mm=length×[width]squared/2.) The tumors in this preliminary experiment took 7 weeks to grow and represent established tumors. […] FIG. 6B confirms the finding of 6A, showing that all three of the control tumors progressed. […] FIG. 6C depicts weight of the tumor when measured at days 1, 6, 9, and 13. FIG. 6D depicts weight of the animal when measured at days 1, 3, 6, 10, and 13.

[8] = target: T1, chymotryptic active site of the proteasome (ZGGL-AMC cleavage) (Homo sapiens, UniProt P28074); test: fluorometric assay of ZGGL-AMC cleavage by Caco 2 cells; format: cell-based; settings: for ZGGL-AMC cleavage: Caco 2 cells (DMSO control 0.287)
T1 construct: Fluorometric assay of ZGGL-AMC cleavage by Caco 2 cells; endogenous in cells; host or cells: Caco 2

Surface EGFR = test: surface EGFR in breast cancer lines under ritonavir; format: cell-based, human; parameters: reference not given here
Surface her2 = test: surface her2 in breast cancer lines under ritonavir; format: cell-based, human; settings: SKBR-3, ritonavir treatment
[9] = patients, Gatti et al., cited from earlier work
[10] = ritonavir serum levels in mice

`CC(C)c1nc(CN(C)C(=O)N[C@H](C(=O)N[C@@H](Cc2ccccc2)C[C@H](O)[C@H](Cc2ccccc2)NC(=O)OCc2cncs2)C(C)C)cs1` [Ritonavir, ritonavir] gave an IC80 (A549; A549, MTT assay, single agent) of 45 µM, a pIC50 (A549; MTT assay) of 4.46 and a pIC50 (H522; NCI-H522) of 4.37. It also gave an IC80 (H522; NCI-H522, single agent) of 90 µM, a pIC50 (H460; NCI-H460) of 4.32 and an IC80 (H460; NCI-H460, single agent) of 100 µM. For the same compound, the pIC50 (H23) was 4.36, the pIC50 (MCF7) was 4.60 and the pIC50 (MDA-231; MDA-MB-231, read-out: Ritonavir IC50, MDA-231) was 4.30. It also gave a pIC50 (MDA-231; MDA-MB-231, MDA-231, 48 hours, MTT, single agent, read-out: IC50) of 4.22, a pIC50 (MDA-436) of 4.40 and a pIC50 (SKBR-3) of 4.22. It also gave a pIC50 (T47D) of 4.92, a pIC50 [1] of 4.38 and a pIC50 (Caco 2 cells; Caco-2, 48 h, read-out: IC50 (50% inhibition of proliferation)) of 4.52. It also gave a pIC50 (Caco 2 cells; Caco 2, single agent, read-out: IC50) of 4.35, a pIC50 [2] of 4.52 and a pIC50 [3] of 4.70. The pIC50 [4] was 4.82, the “EGF receptor down regulated” value (EGF receptor) was 20% and the NFF score ([5]; tongue basal cell layer, 12 μM peak) was 34%. The NFF score ([5]; tongue basal cell layer, 67 μM peak) was 1%, the NFF score ([5]; ventral skin basal cell layer, 12 μM peak) was 27% and the NFF score ([5]; ventral skin basal cell layer, 67 μM peak) was 17%. For the same compound, the “tumor growth rate reduced, compared to vehicle” value (“tumor growth rate reduced” below) ([6]; 10 mg/kg daily gavage, one outlier tumor removed) was 49%, the “tumor growth rate reduced” value ([6]; 20 mg/kg daily gavage, all tumors) was 16% and the “tumor growth rate reduced” value ([6]; 20 mg/kg daily gavage, outlier tumor removed) was 55%. The “growth rate of tumors” value ([7]; nude mice, FIG. 6C) was “decrease the growth rate of tumors”, the “weight of the animal” value ([7]; nude mice, FIG. 6D) was “without causing wasting of the mice” and the tumor response ([7]; three established tumors, FIG. 6A) was “two tumors of three exhibited stable disease”. It also gave a ZGGL-AMC cleavage ([8]; 6 μM) of 0.432 pmol·s^1− 10^6 cells, a ZGGL-AMC cleavage ([8]; 12 μM) of 0.412 pmol·s^1− 10^6 cells and a ZGGL-AMC cleavage ([8]; 24 μM) of 0.337 pmol·s^1− 10^6 cells. The ZGGL-AMC cleavage ([8]; 60 μM) was 0.409 pmol·s^1− 10^6 cells, the “effect on ZGGL-AMC cleavage” value ([8]; Caco 2 cells) was “does not block cleavage” and the “Surface EGFR (Ritonavir)” value (Surface EGFR; MCF7, ritonavir treatment) was 1. The “Surface EGFR (Ritonavir)” value (Surface EGFR; MDA-231, ritonavir treatment) was 0.5, the “Surface EGFR (Ritonavir)” value (Surface EGFR; MDA-436, ritonavir treatment) was 0.5 and the “Surface EGFR (Ritonavir)” value (Surface EGFR; SKBR-3, ritonavir treatment) was 0.36. The “Surface EGFR (Ritonavir)” value (Surface EGFR; T47D, ritonavir treatment) was 1, the “Surface her2 Ritonavir” value (Surface her2) was 0.4 and the “peak plasma ritonavir concentrations” value ([9]; AIDS 13:2083-2089) was 18.6 to 46 µM. For the same compound, the trough concentrations ([9]; AIDS 13:2083-2089) was 10.4 to 17.5 µM, the Cmax ([9]; read-out: upper boundary of ritonavir Cmax plasma concentrations) was about 45 µM and the trough drug levels ([10]; Tween 80, ip injection) was “less than 0.1 μM”. For the same compound, the peak ritonavir concentrations ([10]; oral gavage, Norvir liquid, 40 mg/kg body weight) was “less than 1 μM”.
